Where two headings read alike, the source gives them in different places.
Tests used:
Test in all cases: biochemical
Design in all cases: Eurofins KinaseProfiler full panel at Km ATP, residual kinase activity (%) relative to DMSO
[1] = biological target: T1, TLK1(h) (Homo sapiens, UniProt Q9UKI8)
T1 sequence (Q9UKI8 1-766): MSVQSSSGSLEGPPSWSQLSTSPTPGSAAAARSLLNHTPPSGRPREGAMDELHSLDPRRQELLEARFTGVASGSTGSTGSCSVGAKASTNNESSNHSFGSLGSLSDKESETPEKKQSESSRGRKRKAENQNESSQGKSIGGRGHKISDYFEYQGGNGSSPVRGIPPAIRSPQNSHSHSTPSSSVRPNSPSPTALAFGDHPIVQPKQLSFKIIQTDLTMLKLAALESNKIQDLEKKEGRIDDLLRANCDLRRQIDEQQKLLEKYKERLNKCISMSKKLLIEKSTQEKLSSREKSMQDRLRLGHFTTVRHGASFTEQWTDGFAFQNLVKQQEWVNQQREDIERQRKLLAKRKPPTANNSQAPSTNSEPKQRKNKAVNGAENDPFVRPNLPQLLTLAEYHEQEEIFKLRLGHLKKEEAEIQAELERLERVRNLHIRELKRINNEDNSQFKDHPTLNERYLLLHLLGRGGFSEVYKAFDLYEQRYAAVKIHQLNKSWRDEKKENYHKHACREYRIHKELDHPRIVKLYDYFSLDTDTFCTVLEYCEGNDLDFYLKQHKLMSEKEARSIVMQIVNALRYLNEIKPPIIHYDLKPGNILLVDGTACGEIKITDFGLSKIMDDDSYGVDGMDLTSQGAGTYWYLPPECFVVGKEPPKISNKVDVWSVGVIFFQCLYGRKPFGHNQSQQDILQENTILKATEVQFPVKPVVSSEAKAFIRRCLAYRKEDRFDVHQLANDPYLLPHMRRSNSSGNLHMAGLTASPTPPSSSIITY
Method in brief: (§1)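 Compounds screened at 10 µM in radiometric kinase activity assays at Km ATP, reported as remaining kinase activity (%). A KINOMEscan competition-binding screen at 10 µM measured DNA-tagged kinase retained on immobilized active-site ligand by qPCR.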

[2] = biological target: CLK1(h) (Homo sapiens, UniProt P49759)
Method in brief: as §1

[3] = biological target: T2, BMPR2(h) (Homo sapiens, UniProt Q13873)
T2 sequence (Q13873 1-1038): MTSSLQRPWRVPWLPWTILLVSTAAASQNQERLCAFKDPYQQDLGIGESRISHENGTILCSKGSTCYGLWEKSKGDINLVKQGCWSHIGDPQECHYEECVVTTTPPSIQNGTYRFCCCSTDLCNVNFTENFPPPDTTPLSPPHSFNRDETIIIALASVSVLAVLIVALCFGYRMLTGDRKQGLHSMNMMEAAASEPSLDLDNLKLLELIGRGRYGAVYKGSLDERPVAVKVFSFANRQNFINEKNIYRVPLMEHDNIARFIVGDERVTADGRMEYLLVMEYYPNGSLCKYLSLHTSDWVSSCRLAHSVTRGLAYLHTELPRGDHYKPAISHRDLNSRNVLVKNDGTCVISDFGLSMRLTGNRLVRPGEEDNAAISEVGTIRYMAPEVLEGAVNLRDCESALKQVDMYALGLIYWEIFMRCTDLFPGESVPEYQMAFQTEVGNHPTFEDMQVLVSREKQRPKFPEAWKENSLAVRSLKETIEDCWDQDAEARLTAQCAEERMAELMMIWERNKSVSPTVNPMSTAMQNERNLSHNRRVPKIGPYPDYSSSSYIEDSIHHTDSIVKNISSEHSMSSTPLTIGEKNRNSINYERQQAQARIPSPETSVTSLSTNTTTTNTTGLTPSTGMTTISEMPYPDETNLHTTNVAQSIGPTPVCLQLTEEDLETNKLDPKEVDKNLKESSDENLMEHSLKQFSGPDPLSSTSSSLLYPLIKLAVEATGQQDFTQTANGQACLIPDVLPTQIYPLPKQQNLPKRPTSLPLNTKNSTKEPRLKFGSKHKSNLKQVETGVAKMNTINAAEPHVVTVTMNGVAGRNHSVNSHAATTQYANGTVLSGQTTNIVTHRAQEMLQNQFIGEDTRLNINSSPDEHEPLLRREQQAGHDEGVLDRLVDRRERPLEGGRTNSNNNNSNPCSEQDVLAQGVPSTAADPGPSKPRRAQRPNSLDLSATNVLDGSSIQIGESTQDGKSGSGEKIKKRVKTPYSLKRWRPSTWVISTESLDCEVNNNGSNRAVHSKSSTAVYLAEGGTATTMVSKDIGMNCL
Method in brief: as §1

[4] = biological target: T3, PI3 Kinase (p110a(E542K)/p85a)(m) (Mus musculus, UniProt P42337, E542K)
T3 construct: gene Pik3ca
Method in brief: as §1

[5] = read-out: Residual activity (%) 5ay
[6] = read-out: Residual activity (%) Spautin-1 5aa
[7] = read-out: Residual activity (%) 5at
[8] = read-out: Residual activity (%) 5as

T3 sequence (P42337 whole entry E542K): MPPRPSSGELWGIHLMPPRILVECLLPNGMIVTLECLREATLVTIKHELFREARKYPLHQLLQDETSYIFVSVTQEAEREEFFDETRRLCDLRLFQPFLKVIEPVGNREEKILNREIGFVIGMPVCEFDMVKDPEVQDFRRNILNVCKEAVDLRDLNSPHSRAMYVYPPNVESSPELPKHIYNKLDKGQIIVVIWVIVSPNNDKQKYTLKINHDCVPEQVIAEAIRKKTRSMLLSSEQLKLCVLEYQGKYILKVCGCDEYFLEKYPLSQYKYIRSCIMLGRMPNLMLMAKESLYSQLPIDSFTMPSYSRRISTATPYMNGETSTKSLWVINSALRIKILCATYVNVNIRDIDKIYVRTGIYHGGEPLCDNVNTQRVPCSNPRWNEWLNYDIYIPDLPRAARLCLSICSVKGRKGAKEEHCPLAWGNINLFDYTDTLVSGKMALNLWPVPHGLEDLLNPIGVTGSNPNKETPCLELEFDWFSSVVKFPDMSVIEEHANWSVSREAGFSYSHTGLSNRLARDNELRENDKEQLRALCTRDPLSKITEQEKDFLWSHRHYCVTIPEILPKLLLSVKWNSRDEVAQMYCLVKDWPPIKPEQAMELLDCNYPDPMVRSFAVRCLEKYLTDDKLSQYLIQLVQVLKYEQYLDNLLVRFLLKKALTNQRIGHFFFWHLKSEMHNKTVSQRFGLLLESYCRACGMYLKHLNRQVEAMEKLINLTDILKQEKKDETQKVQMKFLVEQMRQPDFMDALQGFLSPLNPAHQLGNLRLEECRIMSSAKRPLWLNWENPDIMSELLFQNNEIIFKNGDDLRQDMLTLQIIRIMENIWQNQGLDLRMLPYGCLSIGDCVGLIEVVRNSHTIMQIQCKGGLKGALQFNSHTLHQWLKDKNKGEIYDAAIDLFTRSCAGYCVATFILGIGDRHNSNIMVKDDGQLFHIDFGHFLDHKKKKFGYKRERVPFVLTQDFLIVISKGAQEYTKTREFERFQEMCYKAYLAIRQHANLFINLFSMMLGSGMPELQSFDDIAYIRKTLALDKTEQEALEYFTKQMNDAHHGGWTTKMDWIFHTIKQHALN
T3 sequence (P26450 whole entry partner): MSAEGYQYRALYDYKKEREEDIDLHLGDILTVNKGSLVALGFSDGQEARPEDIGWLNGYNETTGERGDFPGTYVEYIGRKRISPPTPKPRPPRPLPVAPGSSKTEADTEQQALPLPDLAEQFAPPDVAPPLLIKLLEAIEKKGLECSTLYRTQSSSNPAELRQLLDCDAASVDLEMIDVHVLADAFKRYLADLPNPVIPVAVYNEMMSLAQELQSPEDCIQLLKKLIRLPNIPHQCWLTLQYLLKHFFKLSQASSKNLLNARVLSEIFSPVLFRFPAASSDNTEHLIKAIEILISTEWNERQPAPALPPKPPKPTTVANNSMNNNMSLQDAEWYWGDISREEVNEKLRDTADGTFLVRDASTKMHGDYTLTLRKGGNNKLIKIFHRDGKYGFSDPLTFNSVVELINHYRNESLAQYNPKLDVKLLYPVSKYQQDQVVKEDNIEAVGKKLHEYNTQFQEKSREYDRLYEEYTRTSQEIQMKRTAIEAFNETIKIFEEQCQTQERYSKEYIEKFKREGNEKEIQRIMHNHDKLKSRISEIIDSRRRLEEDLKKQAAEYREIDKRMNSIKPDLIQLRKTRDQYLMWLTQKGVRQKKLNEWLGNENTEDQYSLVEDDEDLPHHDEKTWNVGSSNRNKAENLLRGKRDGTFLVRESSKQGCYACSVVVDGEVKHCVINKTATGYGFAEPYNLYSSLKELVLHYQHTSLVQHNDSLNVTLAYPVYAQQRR
Sequence of CLK1(h) (P49759 whole entry): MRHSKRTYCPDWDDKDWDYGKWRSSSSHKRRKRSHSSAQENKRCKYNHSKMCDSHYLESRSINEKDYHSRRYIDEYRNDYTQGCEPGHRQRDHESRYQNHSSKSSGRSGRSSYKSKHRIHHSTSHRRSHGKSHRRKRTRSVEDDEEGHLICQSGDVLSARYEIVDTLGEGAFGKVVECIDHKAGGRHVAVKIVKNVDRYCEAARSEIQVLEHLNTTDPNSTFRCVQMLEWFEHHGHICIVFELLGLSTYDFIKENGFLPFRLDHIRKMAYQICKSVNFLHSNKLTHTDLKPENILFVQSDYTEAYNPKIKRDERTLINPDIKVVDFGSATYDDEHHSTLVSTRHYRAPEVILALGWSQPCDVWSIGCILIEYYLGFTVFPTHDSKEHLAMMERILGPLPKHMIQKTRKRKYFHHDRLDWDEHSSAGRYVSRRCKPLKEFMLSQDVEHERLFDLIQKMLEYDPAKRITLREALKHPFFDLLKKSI

COc1ccc2ncnc(Nc3cccc(F)c3)c2c1 [5ay, N-(3-Fluorophenyl)-6-Methoxy-4-Quinazolinamine] gave a remaining activity at 10 µM [1, 5] of 107%, a remaining activity at 10 µM [2, 5] of 14% and a remaining activity at 10 µM [3, 5] of 99%. For the same molecule, the remaining activity at 10 µM [4, 5] was 93%.

With Fc1ccc(CNc2ncnc3ccc(F)cc23)cc1 [5aa, 6-Fluoro-N-(4-fluorobenzyl)-4-Quinazolinamine] the remaining activity at 10 µM [1, 6] was 112%, the remaining activity at 10 µM [2, 6] was 23% and the remaining activity at 10 µM [3, 6] was 115%. For the same molecule, the remaining activity at 10 µM [4, 6] was 96%.

Fc1ccc2ncnc(NCCc3ccc(Cl)cc3)c2c1 [5at, N-[2-(4-Chlorophenyl)Ethyl]-6-Fluoro-4-Quinazolinamine] was tested, and the remaining activity at 10 µM [1, 7] was 97%, the remaining activity at 10 µM [2, 7] was 28% and the remaining activity at 10 µM [3, 7] was 103%. For the same molecule, the remaining activity at 10 µM [4, 7] was 94%.

With Fc1ccc(CCNc2ncnc3ccc(F)cc23)cc1 [5as, 6-Fluoro-N-[2-(4-Fluorophenyl)Ethyl]-4-Quinazolinamine] the remaining activity at 10 µM [1, 8] was 112%, the remaining activity at 10 µM [2, 8] was 28% and the remaining activity at 10 µM [3, 8] was 108%. It also gave a remaining activity at 10 µM [4, 8] of 91%.
